Measured values reported in patent US20030199671A1, “Binding molecules for Fc-region polypeptides” (priority 2001, published 2003).
Like-named read-outs stand apart in the source and are kept apart here. Positions of bridges follow the written chain, without caps; N, C: chain ends. Residues, ends and D or L forms follow the SMILES beside them.

Assays:
[1] = tested on: human IgG; assay: Static (filterplate) binding capacity
Method: These media were used to determine the effect of ligand density on human IgG binding capacity in both static (filterplate) and dynamic (mini-column) modes with commercial immobilized recombinant Protein A (Repligen, IPA400) at a single density as control. Actual ligand densities obtained ranged from 0.17 to 3.2 μmole/ml media as confirmed by quantitative amino acid analysis.
After incubation of the samples, with shaking, at room temperature for one hour, the supernatant liquid from each well, containing unbound IgG, was collected by centrifugation into the cognate well of a collection plate. The assay plate was washed three times with PBST (200 μl/wash) and bound IgG was eluted from the media samples by incubation for 30-60 minutes at room temperature in 100 μl Elution Buffer (100 mM CAPS, pH 11.5). Eluates were collected by centrifugation for analysis. Protein concentrations were determined from A280 measurements and plotted as a function of mg human IgG bound per ml resin vs. mg human IgG applied per ml resin.
The amount of IgG captured (estimated from IgG recovered in the elution step) by the various media is dependent upon both the IgG concentration and the ligand density. […] Under these static conditions, where both ligand and target concentrations are close to KD values, equilibrium binding is established and total capacities cannot be accurately determined. However, over the IgG range of 0 to 25 mg IgG applied per ml resin (0 to 2.5 mg/ml target added to 10 μl of resin), capture of IgG is linear. Beyond this point, up to a level of 200 mg IgG applied per ml resin, saturation becomes more pronounced.

[2] = target: T1, human plasma IgG4 (Homo sapiens, UniProt P01861); assay: Fluorescence anisotropy binding, fluorescein-labeled peptide
T1 construct: the individual human plasma IgG isoforms: IgG1, IgG2, IgG3, or IgG4; purchased Calbiochem; host or cells: human plasma

[3] = target: T2, human plasma IgG3 (Homo sapiens, UniProt P01860); assay: as above
T2 construct: the individual human plasma IgG isoforms: IgG1, IgG2, IgG3, or IgG4; purchased Calbiochem; host or cells: human plasma

[4] = target: Fc (mixture of human plasma IgG isoforms); assay: as above; conditions: pH 8.0, 0.05 M Tris-HCl, 0.2 M NaCl
How it was run: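 Fluorescence anisotropy with fluorescein-labeled peptide (20 nM or 2 nM) titrated with human plasma IgG isoform or mixed-IgG Fc target. Fc buffer 50 mM Tris-HCl, 200 mM NaCl, pH 8.0, 0.01% Tween 20; IgG buffer PBS, 0.01% Tween 20. Equilibrated 10 minutes at 30° C before polarization read.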

[5] = target: T3, human plasma IgG2 (Homo sapiens, UniProt P01859); assay: as above
T3 construct: the individual human plasma IgG isoforms: IgG1, IgG2, IgG3, or IgG4; purchased Calbiochem; host or cells: human plasma
Method: All measurements were performed in 384 well microplates with 20 nM fluorescein-labeled peptide and various concentrations of the IgG isoform in a volume of between 10 and 20 μl using a Tecan Polarion fluorescence polarization plate reader. All binding buffers included 0.01% (v/v) Tween 20 to prevent peptide adsorption to the microplate. The binding mixture was equilibrated for 10 minutes in the microplate at 30° C. prior to performing the measurement.
Peptides were synthesized, fluorescein-labeled and HPLC purified as described above. Binding studies were performed using either a mixture of human plasma IgG isoforms (the Fc protein) or the individual human plasma IgG isoforms: IgG1, IgG2, IgG3, or IgG4.
Measurements were performed in 384-well microplates with 2 nM fluorescein-labeled peptide and a varied concentration of the IgG isoform target in a volume of 10 μl using a Tecan Polarion fluorescence polarization plate reader. The Fc binding buffer was 50 mM Tris-HCl, 200 mM NaCl, pH 8.0, 0.01% Tween 20. The IgG binding buffer was PBS with 0.01% Tween 20. The binding mixtures were equilibrated for 10 minutes in the microplate at 30° C. prior to performing the measurements.

[6] = target: T1, human plasma IgG4; assay: Fluorescence anisotropy binding, Oregon Green labeled peptide
How it was run: (§1)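 Oregon Green-labeled peptides binding to human plasma IgG isoforms measured by fluorescence anisotropy. Buffers with 0.01% Tween 20: 10 mM sodium citrate pH 4.0 with 500 mM NaCl; Tris-HCl pH 7.5 with 500 mM NaCl; 10 mM sodium bicarbonate pH 9.5 with or without 500 mM NaCl.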

[7] = target: T2, human plasma IgG3; assay: as above
[8] = target: T3, human plasma IgG2; assay: as above
[9] = target: T4, human plasma IgG1 (Homo sapiens, UniProt P01857); assay: as above
T4 construct: the individual human plasma IgG isoforms: IgG1, IgG2, IgG3, or IgG4; purchased Calbiochem; host or cells: human plasma
How it was run: as §1

[10] = pH 9.3, 0.01 M sodium bicarbonate

T3 sequence (P01859 1-326 isoform P01859-1): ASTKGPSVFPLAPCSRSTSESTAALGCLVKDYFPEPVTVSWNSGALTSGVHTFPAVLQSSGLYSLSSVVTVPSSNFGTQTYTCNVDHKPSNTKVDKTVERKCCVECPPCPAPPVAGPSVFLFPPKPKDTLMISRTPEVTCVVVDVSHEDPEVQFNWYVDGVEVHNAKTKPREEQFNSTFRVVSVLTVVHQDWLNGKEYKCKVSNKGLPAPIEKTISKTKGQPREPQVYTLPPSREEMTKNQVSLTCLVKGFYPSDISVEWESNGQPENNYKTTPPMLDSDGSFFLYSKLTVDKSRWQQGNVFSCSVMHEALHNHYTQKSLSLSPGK
T2 sequence (P01860 1-377 isoform P01860-1): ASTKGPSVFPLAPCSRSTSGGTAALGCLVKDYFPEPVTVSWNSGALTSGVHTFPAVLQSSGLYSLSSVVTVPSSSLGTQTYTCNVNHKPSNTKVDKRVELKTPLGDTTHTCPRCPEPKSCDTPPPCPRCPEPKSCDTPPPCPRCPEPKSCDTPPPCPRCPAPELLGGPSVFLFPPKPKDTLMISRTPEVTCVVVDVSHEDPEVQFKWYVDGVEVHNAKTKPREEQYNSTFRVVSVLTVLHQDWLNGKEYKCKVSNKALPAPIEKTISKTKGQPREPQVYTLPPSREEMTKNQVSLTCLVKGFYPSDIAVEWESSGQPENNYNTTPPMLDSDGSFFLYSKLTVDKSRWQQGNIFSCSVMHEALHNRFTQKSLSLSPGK
T1 sequence (P01861 1-327 isoform P01861-1): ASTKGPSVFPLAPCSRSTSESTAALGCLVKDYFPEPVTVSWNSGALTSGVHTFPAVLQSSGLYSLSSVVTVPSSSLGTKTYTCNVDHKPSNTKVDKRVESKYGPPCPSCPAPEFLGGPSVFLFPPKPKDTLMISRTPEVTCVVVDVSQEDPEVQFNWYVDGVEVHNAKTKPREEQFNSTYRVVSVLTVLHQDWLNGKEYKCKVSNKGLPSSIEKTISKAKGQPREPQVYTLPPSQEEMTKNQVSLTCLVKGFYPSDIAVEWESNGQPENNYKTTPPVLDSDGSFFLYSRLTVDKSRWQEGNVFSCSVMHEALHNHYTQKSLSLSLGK
T4 sequence (P01857 1-330 isoform P01857-1): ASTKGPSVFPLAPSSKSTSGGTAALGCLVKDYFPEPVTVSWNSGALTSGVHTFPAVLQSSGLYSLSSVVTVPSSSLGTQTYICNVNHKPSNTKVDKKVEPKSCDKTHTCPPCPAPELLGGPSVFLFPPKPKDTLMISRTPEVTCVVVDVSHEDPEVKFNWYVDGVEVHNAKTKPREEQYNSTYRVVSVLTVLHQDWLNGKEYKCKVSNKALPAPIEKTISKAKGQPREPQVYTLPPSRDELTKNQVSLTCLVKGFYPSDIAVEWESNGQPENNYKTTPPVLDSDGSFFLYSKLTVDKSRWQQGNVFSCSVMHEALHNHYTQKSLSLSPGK

Compound: Ac-GDRRACSRDWSGALVWCAGHEPGPEGGGK-NH2 (not fully specified (bridges); printed as Ac-GDRRACSRDWSGALVWCAGHEPGPEGGGK-NH2; cysteine pairing not given here) [DX253]
- Capacity (mg IgG/mL resin) Static ([1]; Ligand Density 0.17 μM/mL): 1.1 mg IgG/mL resin
- Capacity (mg IgG/mL resin) Static ([1]; Ligand Density 0.84 μM/mL): 8.5 mg IgG/mL resin
- Capacity (mg IgG/mL resin) Static ([1]; Ligand Density 1.45 μM/mL): 13.5 mg IgG/mL resin
- Capacity (mg IgG/mL resin) Static ([1]; Ligand Density 2.75 μM/mL): 17.4 mg IgG/mL resin

Compound: CC(=O)NCC(=O)N[C@@H](CC(=O)O)C(=O)N[C@@H](CC(=O)O)C(=O)N[C@@H](CC(=O)O)C(=O)N[C@@H](Cc1c[nH]cn1)C(=O)N[C@H]1CSSC[C@@H](C(=O)N2CCC[C@H]2C(=O)N[C@@H](Cc2c[nH]cn2)C(=O)NCC(=O)N[C@@H](CCC(=O)O)C(=O)N2CCC[C@H]2C(=O)NCC(=O)N2CCC[C@H]2C(=O)N[C@@H](CCC(=O)O)C(=O)NCC(=O)NCC(=O)NCC(=O)N[C@@H](CCCCN)C(N)=O)NC(=O)[C@H](CCC(=O)O)NC(=O)[C@H](CO)NC(=O)[C@H](CC(N)=O)NC(=O)[C@H](Cc2ccccc2)NC(=O)[C@H](Cc2c[nH]c3ccccc23)NC(=O)[C@H](CCC(=O)O)NC(=O)[C@H](CCCNC(=N)N)NC(=O)[C@H](Cc2ccccc2)NC(=O)[C@H](Cc2c[nH]c3ccccc23)NC(=O)[C@H](Cc2ccc(O)cc2)NC1=O [DX252] (Ac-GDDDHCYWFREWFNSECPHGEPGPEGGGK-NH2; disulfide 6-17 (inferred))
- Kd ([2]; pH 5.7, 0.01 M Tris-acetate): > 10 µM
- Kd ([2]; pH 7.4, 0.01 M Tris-HCl): 2.1 to 3.4 µM
- Kd ([2]; pH 7.4, PBS, […] NaCl): > 10 µM
- Kd [2, 10]: > 10 µM
- Kd ([3]; pH 5.7, 0.01 M Tris-acetate): < 0.1 µM
- Kd ([3]; pH 7.4, 0.01 M Tris-HCl): 2.1 to 3.4 µM
- Kd [3, 10]: > 10 µM
- Kd [4]: 5.1 ± 3 µM
- Kd ([5]; pH 5.7, 0.01 M Tris-acetate): > 1 µM
- Kd ([5]; pH 7.4, 0.01 M Tris-HCl): 2.1 to 3.4 µM
- Kd [5, 10]: > 10 µM

Compound: CC[C@H](C)[C@@H]1NC(=O)[C@H](CCCCN)NC(=O)[C@@H](NC(=O)[C@H](Cc2c[nH]c3ccccc23)NC(=O)[C@H](Cc2ccc(O)cc2)NC(=O)[C@H](CO)NC(=O)CNC(=O)[C@H](C)NC(C)=O)CSSC[C@@H](C(=O)N2CCC[C@H]2C(=O)N[C@@H](CCC(N)=O)C(=O)N[C@@H](CO)C(=O)N2CCC[C@H]2C(=O)NCC(=O)N2CCC[C@H]2C(=O)N[C@@H](CCC(=O)O)C(=O)NCC(=O)NCC(=O)NCC(=O)N[C@@H](CCCCN)C(N)=O)NC(=O)[C@H](C(C)C)NC(=O)[C@H](CC(=O)O)NC(=O)[C@H](Cc2c[nH]c3ccccc23)NC1=O [DX392] (Ac-AGSYWCKIWDVCPQSPGPEGGGK-NH2; disulfide 6-12 (inferred))
- Kd ([6]; 10 nM Tris-HCl, 500 mM Sodium Chloride, pH 7.5, read-out: KD (μM) IgG4 pH 7.5 + salt): > 10 µM
- Kd ([6]; 10 mM Sodium Bicarbonate, 500 mM Sodium Chloride, pH 9.5, read-out: KD (μM) IgG4 pH 9.5 + salt): > 10 µM
- Kd ([6]; 10 mM Sodium Bicarbonate, pH 9.5, read-out: KD (μM) IgG4 pH 9.5 − salt): > 10 µM
- Kd ([6]; 10 mM Sodium Citrate, 500 mM Sodium Chloride, pH 4.0, read-out: KD (μM) IgG4 pH 4.0 + salt): > 10 µM
- Kd ([6]; 10 mM Sodium Citrate, pH 4.0, read-out: KD (μM) IgG4 pH 4.0 − salt): > 10 µM
- Kd ([6]; 10 mM Tris-HCl, pH 7.5, read-out: KD (μM) IgG4 pH 7.5 − salt): > 10 µM
- Kd ([6]; TBS, 0.01% Tween 20, pH 7.5, read-out: KD (μM) IgG4 TBS): > 10 µM
- Kd ([7]; 10 nM Tris-HCl, 500 mM Sodium Chloride, pH 7.5, read-out: KD (μM) IgG3 pH 7.5 + salt): > 10 µM
- Kd ([7]; 10 mM Sodium Bicarbonate, 500 mM Sodium Chloride, pH 9.5, read-out: KD (μM) IgG3 pH 9.5 + salt): > 10 µM
- Kd ([7]; 10 mM Sodium Bicarbonate, pH 9.5, read-out: KD (μM) IgG3 pH 9.5 − salt): > 10 µM
- Kd ([7]; 10 mM Sodium Citrate, 500 mM Sodium Chloride, pH 4.0, read-out: KD (μM) IgG3 pH 4.0 + salt): 0.3 to 0.6 µM
- Kd ([7]; 10 mM Sodium Citrate, pH 4.0, read-out: KD (μM) IgG3 pH 4.0 − salt): 0.3 to 0.6 µM
- Kd ([7]; 10 mM Tris-HCl, pH 7.5, read-out: KD (μM) IgG3 pH 7.5 − salt): > 10 µM
- Kd ([7]; TBS, 0.01% Tween 20, pH 7.5, read-out: KD (μM) IgG3 TBS): > 10 µM
- Kd ([8]; 10 nM Tris-HCl, 500 mM Sodium Chloride, pH 7.5, read-out: KD (μM) IgG2 pH 7.5 + salt): > 10 µM
- Kd ([8]; 10 mM Sodium Bicarbonate, 500 mM Sodium Chloride, pH 9.5, read-out: KD (μM) IgG2 pH 9.5 + salt): > 10 µM
- Kd ([8]; 10 mM Sodium Bicarbonate, pH 9.5, read-out: KD (μM) IgG2 pH 9.5 − salt): > 10 µM
- Kd ([8]; 10 mM Sodium Citrate, 500 mM Sodium Chloride, pH 4.0, read-out: KD (μM) IgG2 pH 4.0 + salt): > 10 µM
- Kd ([8]; 10 mM Sodium Citrate, pH 4.0, read-out: KD (μM) IgG2 pH 4.0 − salt): > 10 µM
- Kd ([8]; 10 mM Tris-HCl, pH 7.5, read-out: KD (μM) IgG2 pH 7.5 − salt): > 10 µM
- Kd ([8]; TBS, 0.01% Tween 20, pH 7.5, read-out: KD (μM) IgG2 TBS): > 10 µM
- Kd ([9]; 10 nM Tris-HCl, 500 mM Sodium Chloride, pH 7.5, read-out: KD (μM) IgG1 pH 7.5 + salt): > 10 µM
- Kd ([9]; 10 mM Sodium Bicarbonate, 500 mM Sodium Chloride, pH 9.5, read-out: KD (μM) IgG1 pH 9.5 + salt): > 10 µM
- Kd ([9]; 10 mM Sodium Bicarbonate, pH 9.5, read-out: KD (μM) IgG1 pH 9.5 − salt): > 10 µM
- Kd ([9]; 10 mM Sodium Citrate, 500 mM Sodium Chloride, pH 4.0, read-out: KD (μM) IgG1 pH 4.0 + salt): > 10 µM
- Kd ([9]; 10 mM Sodium Citrate, pH 4.0, read-out: KD (μM) IgG1 pH 4.0 − salt): > 10 µM
- Kd ([9]; 10 mM Tris-HCl, pH 7.5, read-out: KD (μM) IgG1 pH 7.5 − salt): > 10 µM
- Kd ([9]; TBS, 0.01% Tween 20, pH 7.5, read-out: KD (μM) IgG1 TBS): > 10 µM

Compound: Prot. A: immobilized recombinant Protein A (RepliGen Corp., product no. IPA-400), positive control [reference compound]
- Capacity (mg IgG/mL resin) Static ([1]; Ligand Density not determined): 11.1 mg IgG/mL resin
